# Laboratory results published in paper PMC10746112, “Synthesis and Pro-Apoptotic Effects of Nitrovinylanthracenes and Related Compounds in Chronic Lymphocytic Leukaemia (CLL) and Burkitt’s Lymphoma (BL)” (Molecules, 2023).
# Like-named read-outs stand apart in the source and are kept apart here.
# How the values were obtained:
# PGA-1 CLL cell line = assay: alamarBlue cell viability assay; details: CLL cell, 24 h
# [1] = tested on: MUTU-I Burkitt’s lymphoma cell line; assay: alamarBlue cell viability assay; details: MUTU-I
# [2] = tested on: DG-75 Burkitt’s lymphoma cell line; details: read-out: IC50 DG-75; previous work; cited from earlier work
# [3] = tested on: MUTU-I Burkitt’s lymphoma cell line; details: read-out: IC50 MUTU-I; previous work; cited from earlier work
# [4] = tested on: DG-75 Burkitt’s lymphoma cell line; assay: alamarBlue cell viability assay; details: Homo sapiens
# PGA-1 CLL cells = assay: Annexin V/PI apoptotic assay (FACS); type: cell-based; details: 48 h
# Experimental: (§1) The pro-apoptotic effects of the selected nitrovinylanthracene compounds 19a, 19g, 19i, 19l and 19m after 48 h were next determined using FITC (fluorescein isothiocyanate), Annexin V/PI (propidium iodide) staining and FACS (fluorescence-activated cell sorting) analysis to characterize the mode of cellular death induced. […] The CLL cells PGA1 and HG3 (1 × 10^6 cells/mL) were treated at 37 °C with either vehicle (1% (v/v) DMSO) or the nitrostyrene compounds 19a (10 μM, 5 μM and 1 μM) and 19g, 19i, 19l and 19m (10 μM and 1 μM) for 48 h. The cells were then harvested by centrifugation at 400× g in a temperature-controlled Sorvall centrifuge and rinsed with 0.5 mL of Ca^2+ Annexin-V-binding buffer (0.1 M HEPES, pH 7.4; 0.14 M NaCl; 25 mM CaCl2). The samples were resuspended in 50 µL FITC Annexin V (diluted 1:33 in Ca^2+ Annexin V-binding buffer), incubated on ice for 10 min (protected from light), washed with Annexin-V-binding buffer and re-suspended in 500 µL of propidium iodide (PI) solution (0.5 µg/mL). The samples were analysed within 1 h using a BD Accuri C6 flow cytometer counting 10,000 cells and analysed using the FlowJo software (FlowJo LLC, Ashland, OR, USA) package.
# HG-3 CLL cells = assay: Annexin V/PI apoptotic assay (FACS); type: cell-based; details: 48 h
# Experimental: as §1
# [5] = tested on: MCF-7 human breast cancer cells; assay: alamarBlue cell viability assay; details: MCF7, read-out: MCF-7 IC50
# [6] = tested on: MDA-MB-231 human breast cancer cells; assay: alamarBlue cell viability assay; type: cell-based; details: eight concentrations 0.001–50 μM
# HG-3 CLL cell line = assay: alamarBlue cell viability assay; details: 24 h
compound,measurement,setting,value
"O=[N+]([O-])/C=C/c1c2ccccc2cc2ccccc12 [Compound 19a, (E)-9-(2-nitrovinyl)anthracene]",viability at 10 µM,"PGA-1 CLL cell line; read-out: % Viability PGA-1, 10 µM, 24 h",5.1%
same,IC50,"PGA-1 CLL cell line; read-out: PGA-1 IC50, 24 h",3.1 µM
same,viability at 1 µM,"[1]; 24 h, read-out: % Viable Cells Remaining MUTU-1, 1 µM, 24 h",82.5%
same,viability at 10 µM,"[1]; 24 h, read-out: % Viable Cells Remaining MUTU-1, 10 µM, 24 h",5.91%
same,IC50,[1]; read-out: IC50 MUTU-I,2.57 µM
same,IC50,[2],1.5 µM
same,IC50,[3],3 µM
same,viability at 1 µM,"[4]; DG-75, 48 h, read-out: % Viable Cells Remaining DG-75, 1 µM, 48 h",94.6%
same,viability at 10 µM,"[4]; DG-75, 48 h, read-out: % Viable Cells Remaining DG-75, 10 µM, 48 h",14%
same,IC50,"[4]; DG-75, read-out: IC50 DG-75",2.08 µM
same,total apoptosis,"PGA-1 CLL cells; PGA-1, 1 μM",40%
same,total apoptosis,"PGA-1 CLL cells; PGA-1, 5 μM",67%
same,total apoptosis,"PGA-1 CLL cells; PGA-1, 10 μM",94%
same,total apoptosis,"HG-3 CLL cells; HG-3, 1 μM",21%
same,total apoptosis,"HG-3 CLL cells; HG-3, 5 μM",69%
same,total apoptosis,"HG-3 CLL cells; HG-3, 10 μM",93%
same,IC50,[5],1.85 µM
same,IC50,[6],3.82 µM
same,viability at 10 µM,"HG-3 CLL cell line; CLL cell, read-out: % Viability HG-3, 10 µM, 24 h",8%
same,IC50,"HG-3 CLL cell line; CLL cell, read-out: HG-3 IC50, 24 h",2.4 µM
same,IC50,HG-3 CLL cell line; read-out: HG-3 IC50,2.43 µM
